Data on 19 compounds can be found in patent US9670175B2, “Protected succinates for enhancing mitochondrial ATP-production” (NEUROVIVE PHARMACEUTICALS AB, priority 2012, dated 2017).

In assay [1] the test system is rotenone-inhibited intact human platelets. Put plainly: mitochondrial complex II screening assay (high-resolution respirometry). As to conditions: for Mitochondrial Respiration: Complex II-dependent respiration, rotenone-inhibited intact human platelets. Type of assay: cell-based. The text has this:
FIG. 1 is a schematic figure of mitochondrial complex II screening assay. […] In the assay, mitochondrial function in intact cells is repressed with the respiratory complex I inhibitor rotenone. Drug candidates are compared with endogenous substrates (succinate) before and after permeabilization of the plasma membrane to evaluate bioenergetic enhancement or inhibition.
Human platelets were isolated from venous blood collected in K2EDTA vials through two centrifugation steps in room temperature. After 10 min at 300 g, platelet rich plasma was collected and transferred to new vials. 5 min at 4600 g yielded a platelet pellet that was resuspended in an appropriate amount of plasma. The cell concentration was determined with a Swelab Alfa Hematocytometer (Boule Medical AB, Stockholm, Sweden).
Measurement of mitochondrial respiration was performed in a high-resolution oxygraph (Oxygraph—2 k, Oroboros Instruments, Innsbruck, Austria) at a constant temperature of 37° C. Platelets were suspended in the 2 mL glass chamber at a concentration of 200-400*10^6 cells/mL.
(1) Initial screen, complex II-effect, was performed with isolated intact platelets in a buffer containing 110 mM sucrose, HEPES 20 mM, taurine 20 mM, K-lactobionate 60 mM, MgCl2 3 mM, KH2PO4 10 mM, EGTA 0.5 mM, BSA 1 g/l, pH 7.1. After baseline respiration with endogenous substrates was established, complex I was inhibited with Rotenone […]. Drug candidates dissolved in DMSO were titrated in steps to 100 μM, 500 μM and 5 mM final concentration. Subsequently, cell membranes were permeabilised with digitonin (1 mg/1*10^6 pit). After stabilized respiration, Succinate 10 mM was added and after the respiration stabilized the experiment was terminated by addition of the complex III inhibitor Antimycin at final concentration 1 μg/mL and the residual respiration measured. […] In the assay, mitochondrial function in intact cells is repressed with the respiratory complex I inhibitor rotenone. Drug candidates are compared with endogenous substrates before and after permeabilization of the plasma membrane to evaluate bioenergetic enhancement or inhibition.
(1) The ideal compound stimulates respiration in rotenone-inhibited intact cells at low concentration in the CII-screening protocol without inhibitory effect on succinate stimulated respiration after permeabilization. After inhibition of respiration with mitochondrial toxins, respiration should be halted. Please refer to FIG. 1. and the listing below.

In a further assay the test system is intact human platelets. Put plainly: mitochondrial convergent respiration screening assay (FCCP-uncoupled, high-resolution respirometry). As to conditions: control disodium succinate, FIGS. 3A-3C. Type of assay: cell-based. The text has this: FIG. 2 is a schematic figure of mitochondrial convergent respiration screening assay. It describes the protocol for evaluating the potency of novel cell-permeable mitochondrial substrates. In the assay, mitochondrial activity is stimulated by uncoupling the mitochondria with the protonophore FCCP. Drug candidates are titrated to obtain the level of maximum convergent (complex I- and complex II-derived) respiration. After rotenone addition, complex II-dependent stimulation is obtained. The complex III-inhibitor antimycin is added to evaluate non mitochondrial oxygen consumption. The reference substance is succinate.
Human platelets were isolated from venous blood collected in K2EDTA vials through two centrifugation steps in room temperature. After 10 min at 300 g, platelet rich plasma was collected and transferred to new vials. 5 min at 4600 g yielded a platelet pellet that was resuspended in an appropriate amount of plasma. The cell concentration was determined with a Swelab Alfa Hematocytometer (Boule Medical AB, Stockholm, Sweden). […]
(2) In the second protocol, convergent respiration, the same respiration buffer and cell concentrations as described above was used. […] The experiment was terminated by addition of 2 μM Rotenone and 1 μg/mL Antimycin and residual respiration measured. […]

Where [2] appears, read: titrated to 100 μM, 500 μM and 5 mM.
[3] abbreviates: previously known related compounds.

Regarding `O=C1CCC(=O)OCOCOCO1` [Example 9, 1,3,5,7-Tetraoxa-cycloundecane-8,11-dione], the “Mitochondrial Respiration” value in assay [1] (setting [2]) was “+”.

Consider `COC(=O)CCC(=O)OCOC(=O)C(C)(C)C` [Example 2, Succinic Acid 2,2-dimethyl-propionyloxymethyl Ester Methyl Ester], for which the “Mitochondrial Respiration” value in assay [1] (setting [2]) is “++”.

For the compound `COC(=O)C(OC)OC(=O)CCC(=O)OC(OC)C(=O)OC` (stereo not drawn) [Example 15, Succinic Acid bis-(methoxy-methoxycarbonyl-methyl)ester], the “Mitochondrial Respiration” value in assay [1] (setting [2]) was “(+)”.

As to `CC1(C)OC(=O)C(OC(=O)CCC(=O)OC2OC(C)(C)OC2=O)O1` (stereo not drawn) [Example 14, Succinic Acid bis-(2,2-dimethyl-5-oxo-[1,3]dioxolan-4-yl)ester], the “Mitochondrial Respiration” value in assay [1] (setting [2]) was “+++ (stimulation gradually increases and reaches maximum at ≦0.5 mM)”.

In the case of `COC(=O)CCC(=O)OC(C)OC(C)=O` (stereo not drawn) [Example 6, Succinic Acid 1-Acetoxy-Ethyl Ester Methyl Ester], the “Mitochondrial Respiration” value in assay [1] (setting [2]) is “+”.

For `CCC(=O)OC(C)OC(=O)CCC(=O)OC(C)OC(=O)CC` (stereo not drawn) [Example 8, Succinic Acid bis-(1-propionyloxy-ethyl)ester], in assay [1] (setting [2]), the “Mitochondrial Respiration” value was “++”.

For the compound `CCOC(=O)CCC(=O)OCC` [Diethyl succinate, reference compound], the “activity in the assays exemplified” value in assay [1] is “inactive”. Moreover, the “Mitochondrial Respiration” value in assay [1] (setting [3]) was “−”.

Regarding `CCN(CC)C(=O)COC(=O)CCC(=O)OC(C)OC(C)=O` (stereo not drawn) [Example 12, Succinic Acid 1-Acetoxy-Ethyl Ester Diethylcarbamoylmethyl Ester], in assay [1] (setting [2]), the “Mitochondrial Respiration” value was “+”.

In the case of `COC(=O)CCC(=O)OC` [Dimethyl succinate, reference compound], the “activity in the assays exemplified” value in assay [1] was “inactive”. The “Mitochondrial Respiration” value in assay [1] (setting [3]) was “−”.

For `COC(=O)CCC(=O)O` [Monomethyl succinate, reference compound], the “activity in the assays exemplified” value in assay [1] is “inactive”. Also, the “Mitochondrial Respiration” value in assay [1] (setting [3]) is given as “−”.

As to `CCC(OC(C)=O)OC(=O)CCC(=O)OC(CC)OC(C)=O` (stereo not drawn) [Example 7, Succinic Acid bis-(1-acetoxy-propyl)ester], the “Mitochondrial Respiration” value in assay [1] (setting [2]) was “++”.

In the case of `COC(=O)CCC(=O)OCOC(C)=O` [Example 4, Succinic Acid Acetoxymethyl Ester Methyl Ester], in assay [1] (setting [2]), the “Mitochondrial Respiration” value is reported as “++”.

As to `CC(=O)OCOC(=O)CCC(=O)OC(C)OC(C)=O` (stereo not drawn) [Example 13, Succinic Acid 1-Acetoxy-Ethyl Ester Acetoxymethyl Ester], the “Mitochondrial Respiration” value in assay [1] (setting [2]) is “+++ (stimulation gradually increases and reaches maximum at ≦0.5 mM)”. The “respiration (oxygen flux per unit) with stepwise titration compared to control” value in the assay on intact human platelets was “increase in respiration”.

Consider `CCOC(=O)OC(C)OC(=O)CCC(=O)OCC(=O)N(CC)CC` (stereo not drawn) [Example 11, Succinic Acid Diethylcarbamoylmethyl Ester 1-Ethoxycarbonyloxy-Ethyl Ester], for which the “Mitochondrial Respiration” value in assay [1] (setting [2]) was “(+)”.

Regarding `CC(=O)OC(C)OC(=O)CCC(=O)OC(C)OC(C)=O` (stereo not drawn) [Example 5, Succinic Acid bis-(1-acetoxy-ethyl)ester], in assay [1] (setting [2]), the “Mitochondrial Respiration” value is “+++ (stimulation gradually increases and reaches maximum at ≦0.5 mM)”. The “respiration (oxygen flux per unit) with stepwise titration compared to control” value with intact human platelets was “increase in respiration”.

As to `CC(=O)OC(C)OC(=O)CCC(=O)OCOC(=O)CCC(=O)OC(C)OC(C)=O` (stereo not drawn) [Example 17, Succinic Acid 3-(1-acetoxy-ethoxycarbonyl)-propionyloxymethyl Ester 1-acetoxy-ethyl Ester], in assay [1] (setting [2]), the “Mitochondrial Respiration” value was “+++ (stimulation gradually increases and reaches maximum at ≦0.5 mM)”.

`CC(=O)OCOC(=O)CCC(=O)OCOC(=O)CCC(=O)OCOC(C)=O` [Example 18, Succinic Acid 3-acetoxymethoxycarbonyl-propionyloxymethyl Ester Acetoxymethyl Ester]: the “Mitochondrial Respiration” value in assay [1] (setting [2]) was “+++ (stimulation gradually increases and reaches maximum at ≦0.5 mM)”.

As for `CCN(CC)C(=O)COC(=O)CCC(=O)OCOC(C)=O` [Example 10, Succinic Acid Acetoxymethyl Ester Diethylcarbamoylmethyl Ester], the “Mitochondrial Respiration” value in assay [1] (setting [2]) was “++”.

As to `CCOC(=O)OC(C)OC(=O)CCC(=O)OC(C)OC(C)=O` (stereo not drawn) [Example 16, Succinic Acid 1-acetoxy-ethyl Ester 1-ethoxycarbonyloxy-ethyl Ester], in assay [1] (setting [2]), the “Mitochondrial Respiration” value is reported as “++”.
